Key:
glutaredoxin = biological target: T1, glutaredoxin (Escherichia coli, UniProt P68688); experiment: Reduction by glutaredoxin, mBBr/SDS-PAGE with densitometric scanning; format: biochemical
T1 sequence (P68688 1-85): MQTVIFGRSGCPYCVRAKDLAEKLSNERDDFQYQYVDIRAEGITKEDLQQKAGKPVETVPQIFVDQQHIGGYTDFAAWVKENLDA
Experimental: Direct reduction of the proteins under study was determined by a modification of the method of Crawford et al. (Crawford, N. A. et al. (1989), Arch. Biochem. Biophys. 271:223-239). The reaction was carried out in 100 mM potassium phosphate buffer, pH 7.1, containing 10 mM EDTA and 16% glycerol in a final volume of 0.1 ml. As indicated, 0.7 μg (0.1 μM) NTR and 1 μg (0.8 μM) thioredoxin (both routinely from E. coli were added to 70 μl of the buffer solution containing 1 mM NADPH and 10 μg (2 to 17 μM) of target protein. When thioredoxin was reduced by dithiothreitol (DTT, 0.5 mM), NADPH and NTR were omitted. Assays with reduced glutathione were performed similarly, but at a final concentration of 1 mM. After incubation for 20 min, 100 nmoles of mBBr were added and the reaction was continued for another 15 min. To stop the reaction and derivatize excess mBBr, 10 μl of 10% SDS and 10 μl of 100 mM β-mercaptoethanol were added and the samples were then applied to the gels. […]
This ability was tested, using glutaredoxin from E. coli and the seed proteins currently under study. Reduction activity was monitored by the mBBr/SDS polyacrylamide gel electrophoresis procedure coupled with densitometric scanning.

Fructose Bisphosphatase = biological target: T2, Fructose Bisphosphatase (Spinacia oleracea, UniProt P22418); experiment: Activation of chloroplast fructose bisphosphatase by thioredoxin-reduced proteins; format: biochemical, spinach; details: 20 μg protein, 1 μg E. coli thioredoxin, DTT; corrected for thioredoxin alone
T2 construct: purified from leaves of corn (Jacquot, J.-P. et al. (1981), Plant Physiol. 68:300-304) and spinach; from tissue; host or cells: spinach leaves
T2 sequence (P22418 58-415): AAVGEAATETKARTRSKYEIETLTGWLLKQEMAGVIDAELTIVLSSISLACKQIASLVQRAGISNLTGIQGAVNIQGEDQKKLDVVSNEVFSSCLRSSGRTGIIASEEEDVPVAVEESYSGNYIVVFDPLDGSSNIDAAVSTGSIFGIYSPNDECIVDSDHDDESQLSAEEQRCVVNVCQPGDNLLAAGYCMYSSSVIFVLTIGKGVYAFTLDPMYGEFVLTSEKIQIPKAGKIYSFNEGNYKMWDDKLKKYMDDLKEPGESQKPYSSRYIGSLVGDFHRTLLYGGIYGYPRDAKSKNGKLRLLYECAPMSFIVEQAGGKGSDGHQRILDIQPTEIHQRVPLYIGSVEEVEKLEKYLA
Experimental: (§1) The NADP-MDH, FBPase, NTR and Thioredoxin h assay methods were according to Florencio, F. J. et al. (1988), Arch. Biochem. Biophys. 266:496-507 with slight modifications as indicated. For enzyme activation assays, the preincubation time was 20 min unless specified otherwise.
(§2) The Wada et al., 1981 protocol was used for assaying NADP-malate dehydrogenase and fructose 1,6 bisphosphatase in the presence of thioredoxin and 2S protein. Assays were conducted under conditions in which the amount of added thioredoxin was sufficient to reduce the castor 2S protein but insufficient to activate the target enzyme appreciably. All assays were at 25° C. Unless otherwise indicated, the thioredoxin and NTR used were from E. coli. The 2S protein was monitored during purification by mBBr/SDS-polyacrylamide gel electrophoresis following its reduction by dithiothreitol and E. coli thioredoxin (Crawford et al., 1989; Kobrehel et al., 1991).

[1] = biological target: T3, NADP-Malate Dehydrogenase (Zea mays, UniProt P15719); experiment: Activation of chloroplast NADP-malate dehydrogenase by thioredoxin-reduced proteins; format: biochemical, corn; details: 20 μg protein with DTT-reduced thioredoxin h
T3 construct: were purified from leaves of corn; from tissue; host or cells: corn leaves
T3 sequence (P15719 41-432): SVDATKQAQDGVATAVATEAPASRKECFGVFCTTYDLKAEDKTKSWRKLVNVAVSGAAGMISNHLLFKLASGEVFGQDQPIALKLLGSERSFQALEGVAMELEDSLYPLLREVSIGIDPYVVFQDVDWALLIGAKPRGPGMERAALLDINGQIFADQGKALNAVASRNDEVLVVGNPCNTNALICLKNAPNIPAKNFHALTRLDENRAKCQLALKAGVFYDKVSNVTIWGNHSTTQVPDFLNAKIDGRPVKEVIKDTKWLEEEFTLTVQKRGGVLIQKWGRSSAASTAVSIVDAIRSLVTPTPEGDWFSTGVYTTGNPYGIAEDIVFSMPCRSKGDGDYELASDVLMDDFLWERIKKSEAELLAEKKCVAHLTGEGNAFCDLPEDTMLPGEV
Experimental: as §1
In one study 20 mM β-mercaptoethanol (β-MET) was used instead of DTT. Following preincubation, NADP-MDH was assayed spectrophoto-metrically.
as §2

Substance: Aprotinin [Bovine lung (Aprotinin)]
- percentage reduction by glutaredoxin relative to E. coli thioredoxin (glutaredoxin): not affected
- ACTIVITY, FBPase (Fructose Bisphosphatase): 2 nkat/mg
- ACTIVITY, NADP-MDH [1]: Trace
